# Laboratory results: PubChem BioAssay AID342 (DTP/NCI, 2004)
# “And” between values parts separate entries of the source, which are not always exact repeats. Equal values may be shown once.
# Tested on: Swiss mice, Sarcoma 180 sc, mean tumor weight T/C
# Assay: NCI In Vivo Anticancer Drug Screen. Data for tumor model Sarcoma 180 (subcutaneous) in Swiss mice
# Details: endpoint: mean tumor weight, higher = larger tumour
# Summary of the method: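 Readout is the ratio of treated-group measurement to vehicle-control measurement (T/C), based on survival or tumor size in mice carrying transplanted tumors.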
compound,measurement,setting,value
O=[N+]([O-])c1ccc(C=Nc2ccc3c(c2)C(Br)c2ccccc2-3)cc1 (stereo not given),T/C,"dose: 55.0 mg/kg/injection, schedule: Q#A X014 (ip), vehicle: saline",56 % of control
same,T/C,"dose: 83.0 mg/kg/injection, schedule: Q#A X014 (ip), vehicle: saline",30 % of control and 37 % of control
same,T/C,"dose: 110.0 mg/kg/injection, schedule: Q01DX007 (ip), vehicle: saline",88 % of control
same,T/C,"dose: 125.0 mg/kg/injection, schedule: Q#A X014 (ip), vehicle: saline",28 % of control and 37 % of control
same,T/C,"dose: 166.0 mg/kg/injection, schedule: Q01DX007 (ip), vehicle: saline",85 % of control
same,T/C,"dose: 187.5 mg/kg/injection, schedule: Q#A X014 (ip), vehicle: saline",18 % of control
same,T/C,"dose: 250.0 mg/kg/injection, schedule: Q01DX007 (ip), vehicle: saline",94 % of control
same,T/C,"dose: 375.0 mg/kg/injection, schedule: Q01DX007 (ip), vehicle: saline",61 % of control
CC(=O)c1cccc(NC2C(N)C(NC(=O)N(C)C)(C(C)O)C(C)(O)C2(O)COC(=O)c2c(C)cccc2O)c1 (stereo not given),T/C,"dose: 0.5 mg/kg/injection, schedule: Q01DX007 (ip), vehicle: other",88 % of control
same,T/C,"dose: 1.0 mg/kg/injection, schedule: Q01DX007 (ip), vehicle: other",81 % of control
same,T/C,"dose: 2.0 mg/kg/injection, schedule: Q01DX007 (ip), vehicle: other",110 % of control
same,T/C,"dose: 2.0 mg/kg/injection, schedule: Q01DX007 (ip), vehicle: saline",66 % of control
C=CC(CN1CC1)OC(C)=O (stereo not given),T/C,"dose: 0.88 mg/kg/injection, schedule: Q01DX007 (ip), vehicle: carboxymethylcellulose (CMC)",94 % of control
same,T/C,"dose: 1.25 mg/kg/injection, schedule: Q01DX007 (ip), vehicle: carboxymethylcellulose (CMC)",68 % of control
same,T/C,"dose: 1.75 mg/kg/injection, schedule: Q01DX007 (ip), vehicle: carboxymethylcellulose (CMC)",97 % of control
same,T/C,"dose: 2.3 mg/kg/injection, schedule: Q01DX007 (ip), vehicle: carboxymethylcellulose (CMC)",58 % of control
same,T/C,"dose: 3.5 mg/kg/injection, schedule: Q01DX007 (ip), vehicle: carboxymethylcellulose (CMC)",56 % of control
same,T/C,"dose: 7.0 mg/kg/injection, schedule: Q01DX007 (ip), vehicle: carboxymethylcellulose (CMC)",50 % of control
O=C(O)c1ccccc1C(=O)OCc1ccccc1,T/C,"dose: 500.0 mg/kg/injection, schedule: Q01DX007 (ip), vehicle: carboxymethylcellulose (CMC)",72 % of control
CO[C@H]1C[C@H](O[C@H]2CC[C@]3(C=O)[C@H]4CC[C@]5(C)[C@@H](C6=CC(=O)OC6)CC[C@]5(O)[C@@H]4CC[C@]3(O)C2)O[C@H](C)[C@H]1O,T/C,"dose: 2.5 mg/kg/injection, schedule: Q01DX007 (sc), vehicle: saline",86 % of control
same,T/C,"dose: 5.0 mg/kg/injection, schedule: Q01DX007 (sc), vehicle: saline",62 % of control
CNNCc1ccc(C(=O)NC(C)C)cc1,T/C,"dose: 100.0 mg/kg/injection, schedule: Q01DX007 (ip), vehicle: saline",26 % of control
same,T/C,"dose: 125.0 mg/kg/injection, schedule: Q01DX007 (ip), vehicle: carboxymethylcellulose (CMC)",36 % of control
same,T/C,"dose: 148.0 mg/kg/injection, schedule: Q01DX007 (ip), vehicle: saline",22 % of control
same,T/C,"dose: 222.0 mg/kg/injection, schedule: Q01DX007 (ip), vehicle: saline",16 % of control
same,T/C,"dose: 250.0 mg/kg/injection, schedule: Q01DX007 (ip), vehicle: carboxymethylcellulose (CMC)",15 % of control
same,T/C,"dose: 333.0 mg/kg/injection, schedule: Q01DX007 (ip), vehicle: saline",16 % of control
same,T/C,"dose: 500.0 mg/kg/injection, schedule: Q01DX007 (ip), vehicle: saline",8 % of control
CC(=O)OCC1OC(n2ccc(N)nc2=O)C(OC(C)=O)C1OC(C)=O (stereo not given),T/C,"dose: 50.0 mg/kg/injection, schedule: Q01DX007 (oral), vehicle: carboxymethylcellulose (CMC)",44 % of control
same,T/C,"dose: 100.0 mg/kg/injection, schedule: Q01DX007 (oral), vehicle: carboxymethylcellulose (CMC)",32 % of control
same,T/C,"dose: 200.0 mg/kg/injection, schedule: Q01DX007 (oral), vehicle: carboxymethylcellulose (CMC)",32 % of control
same,T/C,"dose: 400.0 mg/kg/injection, schedule: Q01DX007 (oral), vehicle: carboxymethylcellulose (CMC)",63 % of control
O=[n+]1c2c(n([O-])c3ccccc31)-c1cccc3cccc-2c13,T/C,"dose: 41.0 mg/kg/injection, schedule: Q01DX007 (ip), vehicle: carboxymethylcellulose (CMC)",69 % of control
same,T/C,"dose: 210.0 mg/kg/injection, schedule: Q01DX007 (ip), vehicle: carboxymethylcellulose (CMC)",10 % of control
same,T/C,"dose: 315.0 mg/kg/injection, schedule: Q01DX007 (ip), vehicle: carboxymethylcellulose (CMC)",25 % of control
